Laboratory results as given in patent US6369109B1, “Betulinic acid and derivatives thereof useful for the treatment of neuroectodermal tumor” (Deutsches Krebsforschungszentrum Stiftung des Offentlichen …, priority 1998, dated 2002).
Residues, ends and D or L forms follow the SMILES beside them. *: point of attachment. Cbz = O=C(OCc1ccccc1)*; CH2F = FC*

How the values were obtained:
[1] = system: FLICE, CPP32 and PARP in SH-EP neuroblastoma cells; assay: Western blot of FLICE (caspase-8), CPP32 (caspase-3) and PARP cleavage; assay type: cell-based, human
Description: Cells were lysed for 30 min at 4° C. in PBS with 0.5% Triton X (Serva, Heidelberg, Germany) and 1 mM phenylmethylsulfonyl fluoride (Sigma, Deisenhofen, Germany) followed by high-speed centrifugation. Membrane proteins were eluted in buffer containing 0.1 M glycine. PH 3.0 and 1.5 M Tris, pH 8.8. Protein concentration was assayed using bicinchoninic acid (Pierce Chemical Co., Rockford, Ill.). Forty μg of protein per lane were separated by 12% SDS-PAGE and electroblotted onto nitrocellulose (Amersham, Braunschweig, Germany). Equal protein loading was controlled by Ponceau red staining of membranes. After blocking for 1 h in PBS supplemented with 2% BSA (Sigma) and 0.1% Tween 20 (Sigma), immunodetection of FLICE, CPP32, PARP, Bax, Bcl-x, Bcl-2, and p53 protein was done using mouse anti-FLICE monoclonal antibody C15 (1:5 dilution of hybridoma supernatant), mouse anti-CPP32 monoclonal antibody (1:1000, Transduction Laboratories, Lexington, KY), rabbit anti-PARP polyclonal antibody (1:10000, Enzyme Systems Products), rabbit anti-Bax polyclonal antibody (1:500, Calbiochem, Bad Soden, Germany), rabbit anti-Bcl-x polyclonal antibody (1:1000, Santa Cruz Biotechnology, Santa Cruz, Calif.), mouse anti-p53 monoclonal antibody (1:10000, Transduction Laboratories), and goat anti-mouse 1gG or goat antirabbit IgG (1:5000, Santa Cruz Biotechnology), ECL (Amersham) was used for detection.
FIG. 2B and FIG. 2C show the cleavage of FLICE, CPP32 and PARP. SH-EP neuroblastoma cells were treated with 10 μg/ml betulinic acid for indicated times or with 0.5 μg/ml doxorubicin for 24 h. Forty μg of protein per lane, isolated from cell lysates, were separated by 12% SDS-PAGE, Immunodetection of FLICE (FIG. 2B). CPP32 (FIG. 2C), and PARP (C) proteins was performed by mouse anti-FLICE monoclonal antibody, mouse anti-CPP32 monoclonal antibody, or rabbit anti-PARP polyclonal antibody and ECL.
SH-EP neuroblastoma cells were treated with 10 μg/ml betulinic acid for 24 h with or without 60 μM zVAD-frnk. Western blot analysis for FLICE and PARP cleavage was performed as described for FIG. 2B.
Cells were lysed for 30 mm at 4° C. in PBS with 0.5% Triton X (Serva, Heidelberg, Germany) and 1 mM PMSF (Sigma, Deisenhofen, Germany) followed by high-speed centrifugation. Membrane proteins were eluted in buffer containing 0.1 M glycine, pH 3.0 and 1.5 M Tris, pH 8.8. Protein concentration was assayed using bicinchoninic acid (Pierce, Rockford, Ill.). 40 μg protein per lane was separated by 12% or 15% SDS-PAGE and electroblotted onto nitrocellulose (Amersham, Braunschweig, Germany). Equal protein loading was controlled by Ponceau red staining of membranes. […]
For determination of mitochondrial membrane potential, cells (5×10^5/ml) were incubated with 3,3′-dihexyloxacarbocyanide iodide (DiOC6(3), 40 nM, Molecular Probes, Inc., Eugene, Oreg.) for 15 min at 37° C. and analyzed on a flow cytometer (FACScan) (Zamzarni et al., 1996 J. Exp. Med. 183:1533-44). […]

[2] = system: CD95-L and CD95 in SHEP cells transfected with Bcl-2, Bcl-XL or Neo; assay: Induction of CD95-L and CD95 (RT-PCR, Western blot, FACS); assay type: cell-based, human; conditions: 0.5 μg/ml Doxo or 10 μg/ml betulinic acid, 24 h, Bcl-2 or Bcl-XL cells, FIG. 13
Description: Cells were stained with anti-APO-1 (CD95) IgGl monoclonal antibody (moab) (1 μg/ml; Trauth et al., 1989, Science 245:301-305) for 45 minutes at 4° C. followed by goat anti-mouse IgG-FITC (Immunotech, Hamburg, Germany) for 30 minutes at 4° C. FII23 IgGl antibody was used as an isotype matched non-binding antibody to control unspecific binding.
Total RNA was prepared using the Qiagen total RNA kit (Qiagen, Hilden, Germany). RNA was converted to cDNA by reverse transcription and amplified for 38 cycles by PCR in a thermocycler (Stratagene, Heidelberg, Germany) using the Gene Amplification RNA-PCR kit (Perkin Elmer, Branchburg, N.J.) following the manufacturer's instructions. A 500-base pair fragment of CD95-L was amplified using primer 5′[…]3′ (SEQ ID:No 1) and 5′[…]3′ (SEQ ID NO:2) and a 311-base pair fragment of CD95 was amplified using primer 5′[…] […]
CD95-L mRNA expression was determined by RT-PCR. […] CD95-L protein was detected as a Mr 37,000 band by mouse anti-CD9S-L moab and enhanced chemiluminescence.
SHEP cells transfected with Bcl-2 or Bcl-XL or a neomycin resistance vector only (Neo) were treated (Lanes+) with 0.5 μg/ml Doxo or 10 μg/ml Bet A for 24 h. CD95 mRNA expression was determined by RT-PCR. […] For FACS analysis of CD95 protein expression (C), cells were stained with mouse anti-APO-1 moab followed Dy FITC-conjugated antimouse IgG antibody and analyzed by flow cytometry. […]

[3] = 0.5 μg/ml Doxo or 10 μg/ml Bet A, 24 h, FIG. 14A

SMILES	caspase-3 (and PARP) processing in Bcl-2 or Bcl-XL overexpressing cells [1, 3]	caspase-8 processing in Bcl-2 or Bcl-XL overexpressing cells [1, 3]	caspase cleavage in cells sorted into ΔΨm^high and ΔΨm^low ([1]; 0.5 μg/ml Doxorubicin or 10 μg/ml Bet A, 18 h, FIG. 14B-2)	cleavage of FLICE ([1]; 10 μg/ml betulinic acid, 0.5 μg/ml doxorubicin 24 h, FIG. 2B)	induction of CD95-L and CD95 [2]	effect of inhibitor on betulinic acid-induced cleavage of FLICE and PARP ([1]; 60 μM zVAD-fmk, 10 μg/ml betulinic acid 24 h, FIG. 2E)
COc1cccc2c1C(=O)c1c(O)c3c(c(O)c1C2=O)C[C@@](O)(C(=O)CO)C[C@@H]3O[C@H]1C[C@H](N)[C@H](O)[C@H](C)O1 [doxorubicin]	inhibited in Bcl-2 and Bcl-XL transfected cells	cleaved into p43 and p41 intermediates and the active p18 subunit, regardless of Bcl-2 or Bcl-XL overexpression	CD95-L induction and cleavage of caspase-8 was found in both ΔΨm^high and ΔΨm^low cells	stimulated FLICE cleavage	Both CD95-L and CD95 were induced at the mRNA and protein level	
COC(=O)C[C@H](NC(=O)[C@H](C)NC(=O)[C@@H](NC(=O)OCc1ccccc1)C(C)C)C(=O)CF [zVAD-fmk, benzyloxycarbonyl-Val-Ala-Asp-Fluoromethylketone] (Cbz-Val-Ala-Asp(OMe)-CH2F)						inhibited cleavage of FLICE and PARP
